Laboratory results: paper PMC10537280, “Chemo-/Regio-Selective Synthesis of Novel Functionalized Spiro[pyrrolidine-2,3′-oxindoles] under Microwave Irradiation and Their Anticancer Activity” (Molecules, 2023)

Experiments:
[1] = tested on: human HepG2 cancer cell lines; assay: MTT cytotoxicity assay, liver cancer HepG2 cells; type: cell-based; details: for IC50: Homo sapiens, HepG2, 72 h, MTT, 72 h, 0.19–100 μM, means of at least three independent experiments in duplicates, read-out: HepG2 Cells IC50; for S.I. Selectivity index liver (IC50 normal cells/IC50 cancer cells): LO2 IC50 / HepG2 IC50
Protocol: (§1) Adenocarcinomic human alveolar basal epithelial (A549) and human hepatoma (HepG2) cancer cell lines, immortalized normal human liver (LO2), human bronchial epithelial (BEAS-2B cells were purchased from [NT], Manassas, VA, USA). […] Invitrogen, Waltham, MA, USA). All cells were incubated at 37 °C in a 5% humidified CO2 incubator). All test compounds were dissolved in DMSO at a final concentration of 50 mM and stored at -20 °C before use. Cytotoxicity was assessed by the MTT (5 mg/mL) assay, as described previously. Briefly, 5 × 10^3 cells per well were seeded in 96-well plates before drug treatments. […] Cells without drug treatment were used as controls. Subsequently, 10 μL of 5 mg/mL MTT solution was added to each well and incubated at 37 °C for 4 h, followed by the addition of 100 μL solubilization buffer (12 mM HCl in a solution of 10% SDS) and overnight incubation. The absorbance, A570 nm, was then determined in each well on the next day. The percentage of cell viability was calculated using the expression: % viability = Atreated/Acontrol × 100, and was given as cytotoxicity (Table 2 and Table 3; […]

[2] = tested on: immortalized liver LO2 normal cell lines; assay: MTT cytotoxicity assay, normal liver LO2 cells; type: cell-based; details: Homo sapiens, L02; MTT, 72 h, 0.19–100 μM; normal liver cells; read-out: LO2 Cells IC50
Protocol: as §1

[3] = tested on: human lung A549 cancer cell lines; assay: MTT cytotoxicity assay, lung cancer A549 cells; type: cell-based; details: for IC50: Homo sapiens, A549, MTT, 72 h, 0.19–100 μM, means of at least three independent experiments in duplicates, read-out: A549 Cells IC50
Protocol: as §1

[4] = tested on: immortalized lung BEAS-2B normal cell lines; assay: MTT cytotoxicity assay, normal lung BEAS-2B cells; type: cell-based; details: Homo sapiens, MTT, 72 h, 0.19–100 μM, normal lung cells, read-out: BEAS-2B Cells IC50
Protocol: as §1

melting point | SMILES | IC50 [1] | IC50 [2] | IC50 [3] | IC50 [4] | S.I. Selectivity index liver (IC50 normal cells/IC50 cancer cells) [1] | S.I. Selectivity index lung (IC50 normal cells/IC50 cancer cells) ([3]; BEAS-2B IC50 / A549 IC50)
73 to 75 °C | COc1ccc(C2C([N+](=O)[O-])C(CC(C)C)NC23C(=O)Nc2ccccc23)cc1OC (stereo not drawn) [Compound 4h, 3′-(3,4-dimethoxyphenyl)-5′-isobutyl-4′-nitrospiro[indoline-3,2′-pyrrolidin]-2-one] | > 100 µM | > 100 µM | > 100 µM | > 100 µM |  | 
165 to 167 °C | COc1ccc(C2C([N+](=O)[O-])C(C)NC23C(=O)Nc2ccccc23)cc1OC (stereo not drawn) [Compound 4i, 3′-(3,4-dimethoxyphenyl)-5′-methyl-4′-nitrospiro[indoline-3,2′-pyrrolidin]-2-one] | > 100 µM | > 100 µM | > 100 µM | > 100 µM |  | 
155 to 157 °C | COc1ccc(C2C([N+](=O)[O-])C(C)NC23C(=O)Nc2ccc(Br)cc23)cc1OC (stereo not drawn) [Compound 4j, 5-bromo-3′-(3,4-dimethoxyphenyl)-5′-methyl-4′-nitrospiro[indoline-3,2′-pyrrolidin]-2-one] | > 100 µM | > 100 µM | > 100 µM | > 100 µM |  | 
68 to 70 °C | COc1cc(C2C([N+](=O)[O-])C(CC(C)C)NC23C(=O)Nc2ccccc23)ccc1OCc1ccccc1 (stereo not drawn) [Compound 4k, 3′-(4-(benzyloxy)-3-methoxyphenyl)-5′-isobutyl-4′-nitrospiro[indoline-3,2′-pyrrolidin]-2-one] | 67.8 µM | 33.3 µM | > 100 µM | > 100 µM | 0.49 | 
168 to 170 °C | COc1cc(C2C([N+](=O)[O-])C(C)NC23C(=O)Nc2ccccc23)ccc1OCc1ccccc1 (stereo not drawn) [Compound 4l, 3′-(4-(benzyloxy)-3-methoxyphenyl)-5′-methyl-4′-nitrospiro[indoline-3,2′-pyrrolidin]-2-one] | > 100 µM | > 100 µM | > 100 µM | > 100 µM |  | 
168 to 170 °C | COc1cc(C2C([N+](=O)[O-])C(C)NC23C(=O)Nc2ccc(Br)cc23)ccc1OCc1ccccc1 (stereo not drawn) [Compound 4m, 3′-(4-(benzyloxy)-3-methoxyphenyl)-5-bromo-5′-methyl-4′-nitrospiro[indoline-3,2′-pyrrolidin]-2-one] | 41.6 µM | 36.6 µM | 45.9 µM | 63.5 µM | 0.88 | 1.38

SMILES | melting point | IC50 [1] | IC50 [2] | IC50 [3] | IC50 [4] | S.I. Selectivity index liver (IC50 normal cells/IC50 cancer cells) [1] | S.I. Selectivity index lung (IC50 normal cells/IC50 cancer cells) ([3]; BEAS-2B IC50 / A549 IC50)
COc1cc(C2C([N+](=O)[O-])C3CCCN3C23C(=O)Nc2ccccc23)ccc1OCc1ccccc1 (stereo not drawn) [Compound 4n, 2′-(4-(benzyloxy)-3-methoxyphenyl)-1′-nitro-1′,2′,5′,6′,7′,7a′-hexahydrospiro[indoline-3,3′-pyrrolizin]-2-one] | 66 to 68 °C | > 100 µM | > 100 µM | > 100 µM | > 100 µM |  | 
COc1cc(C2C([N+](=O)[O-])C3CCCN3C23C(=O)Nc2ccc(Br)cc23)ccc1OCc1ccccc1 (stereo not drawn) [Compound 4o, 2′-(4-(benzyloxy)-3-methoxyphenyl)-5-bromo-1′-nitro-1′,2′,5′,6′,7′,7a′-hexahydrospiro[indoline-3,3′-pyrrolizin]-2-one] | 95 to 97 °C | > 100 µM | > 100 µM | > 100 µM | > 100 µM |  | 
COc1ccc(C2C([N+](=O)[O-])C3CCCN3C23C(=O)Nc2ccccc23)cc1OCc1ccccc1 (stereo not drawn) [Compound 4p, 2′-(3-(benzyloxy)-4-methoxyphenyl)-1′-nitro-1′,2′,5′,6′,7′,7a′-hexahydrospiro[indoline-3,3′-pyrrolizin]-2-one] | 83 to 85 °C | > 100 µM | > 100 µM | > 100 µM | > 100 µM |  | 
